Numbers after ± are expanded uncertainties.
Conditions: Crystal; Adiabatic calorimetry

`CCCC[n+]1ccn(C)c1.O=S(=O)([N-]S(=O)(=O)C(F)(F)F)C(F)(F)F` gave a Triple point temperature of 270.22 ± 0.05 K.
